Consider two molecules from patent publication US20070112057A1, “Polymorphic forms of tegaserod maleate” (priority 2005, published 2007).

Data set [1] in a line: Weight loss measured by TGA. The format is physicochemical. The settings on record: range of about 25° C. to about 200° C. Here is the method:
Form Z has a weight loss of about 0.1% by weight at the range of about 25° C. to about 200° C., as measured by TGA.

A short description of data set [2]: Water absorption (hygroscopicity) test under 80% relative humidity. The format is physicochemical. The settings on record: room temperature, 37 days.
The conditions of data set [3]: cited from earlier work.

The structures appear in SMILES notation.

With `CCCCCNC(=N)N/N=C/c1c[nH]c2ccc(OC)cc12.O=C(O)/C=C\C(=O)O` [Form Z, tegaserod maleate], in data set [1], the “weight loss as measured by TGA” value is “about 0.1 % by weight”. In addition, the “hygroscopicity (water absorption)” value in data set [2] is recorded as “non hygroscopic”.
`CCCCCNC(=N)N/N=C/c1c[nH]c2ccc(OC)cc12.O=C(O)/C=C\C(=O)O` [Tegaserod maleate, 3-(5-methoxy-1H-indole-3-ylmethylene)-N-pentylcarbazimidamide hydrogen maleate]: in data set [3] (ethanol), the solubility in ethanol result is reported as “slightly soluble”. The solubility in water entry in data set [3] (water) is “very slightly soluble”.
